For 82 compounds, viability results are on record in PMC12040169 (PLOS Biology, 2025).

A short description of the data set: in vitro. As to conditions: human, hela cells, % viability.

In the case of `O=c1cc(N2CCN(c3ccccc3)CC2)[nH]c(=O)n1-c1ccccc1Cl` [CBK287506], the viability at 28.5 h, 10 µM is 101%.

`COc1ccc(OC)c(NC(=O)CSc2nnc(-c3cccnc3)s2)c1` [CBK269043]: the viability at 28.5 h, 10 µM turned out to be 78.3%.

With `Cn1c2c(c(=O)n(C)c1=O)[C@@H]1C(C[C@](O)(COCc3ccccc3)[C@H]1O)C1(CCC1)N2` (stereo partly shown) [CBK303265], the viability at 28.5 h, 10 µM was 116%.

Turning to `COc1ccc(-c2c[nH]c([C@@H]3COCCN3Cc3cccc(C#N)c3)n2)cc1` [CBK289298], the viability at 28.5 h, 10 µM came out at 96%.

Take `COc1ccc(CCN2C(=O)c3[nH]nc(-c4cc(C)c(C)cc4O)c3C2c2ccccc2)cc1` (stereo not shown) [CBK269154]: the viability at 28.5 h, 10 µM amounted to 106%.

As for `COc1ccc(Cn2c(=O)[nH]n(-c3ccccc3)c2=O)cc1F` [CBK122772], the viability at 28.5 h, 10 µM turned out to be 86.5%.

With `CCOCCCNC(=O)c1ncoc1-c1ccc(F)cc1` [CBK282353], the viability at 28.5 h, 10 µM worked out at 92.6%.

For the compound `CC(C)(O)C1CCCN(C(=O)c2coc(COc3cccc(F)c3)n2)C1` (stereo not shown) [CBK306977], the viability at 28.5 h, 10 µM worked out at 77.4%.

With `CC(C)(CNC(=O)Cn1cc(C(=O)NC2CCCCC2)ccc1=O)c1ccccc1F` [CBK286099], the viability at 28.5 h, 10 µM was 89%.

As to `COc1ccc(S(=O)(=O)N2CCN(Cc3cc(OC)c(OC)c(OC)c3)CC2)cc1` [CBK263330], the viability at 28.5 h, 10 µM turned out to be 89.3%.

For `Cc1c(NCc2ccc3c(c2)n(C)c(=O)n3C)cccc1C(=O)O` [CBK287237], the viability at 28.5 h, 10 µM was 98.6%.

In the case of `CC1CN(Cc2cccc(CNc3nccnc3C#N)c2)CCO1` (stereo not shown) [CBK304736], the viability at 28.5 h, 10 µM was 94%.

For `O=C(c1nccs1)C1CCN(C(=O)CC2CCCC2)CC1` [CBK284207], the viability at 28.5 h, 10 µM was 107%.

As to `CC(N)C(=O)Nc1ccccc1-c1ccccc1` (stereo not shown) [CBK267700], the viability at 28.5 h, 10 µM came to 98.7%.

On to `Cc1ccc2c(c1)C(NC(=O)C1CC1C)CC1(CCOCC1)O2` (stereo not shown) [CBK284880], for which the viability at 28.5 h, 10 µM amounted to 91.8%.

In the case of `O=C(Nc1ccccc1Cl)Nc1[nH]nc(O)c1Cc1c(Cl)cccc1Cl` [CBK089367], the viability at 28.5 h, 10 µM was 113%.

Regarding `O=C(Nc1cccc(C(=O)O)c1)Nc1ccc(Cl)c(Cl)c1` [CBK155455G], the viability at 28.5 h, 10 µM was determined as 88.7%.

`COc1cc(/C=C/C(=O)NCc2ccc(C(=O)O)cc2)ccc1O` [CBK286728]: the viability at 28.5 h, 10 µM is 86.4%.

For `Cc1ccc(-c2cc(C(=O)N(C)Cc3cccn3C)[nH]n2)o1` [CBK283324], the viability at 28.5 h, 10 µM worked out at 100%.

For the compound `c1cncc(COc2cncc(OC3CCNC3)n2)c1` (stereo not shown) [CBK077419T], the viability at 28.5 h, 10 µM worked out at 94.3%.

Consider `COc1ccc(/C=C/C(=O)O)cc1S(=O)(=O)N1CCCCCC1` [CBK263565], for which the viability at 28.5 h, 10 µM came out at 87.8%.

For `COc1ccc2c(c1)nc(SCC(O)c1ccccc1)n2C` (stereo not shown) [CBK262508], the viability at 28.5 h, 10 µM came to 97.6%.

In the case of `CC(C)(C)C(O)CNc1ncnc2ccc(S(C)(=O)=O)cc12` (stereo not shown) [CBK306494], the viability at 28.5 h, 10 µM stood at 76.8%.

Take `c1coc(-c2cc(NC3CCCCC3)ncn2)c1` [CBK090901]: the viability at 28.5 h, 10 µM worked out at 91.2%.

In the case of `O=C(c1ncoc1-c1ccc(F)cc1)N1CCSCC1` [CBK282380], the viability at 28.5 h, 10 µM is 105%.

Regarding `Cc1ccn(CCC(=O)NC(C)c2cccnc2)n1` (stereo not shown) [CBK282197], the viability at 28.5 h, 10 µM was found to be 97.6%.

On to `CCN(CC)C(=O)Cc1ccc(NC(=O)NCc2cnn(C)c2)cc1` [CBK304918], for which the viability at 28.5 h, 10 µM amounted to 111%.

With `COC(=O)[C@H]1Cc2cc3c(cc2[C@H]1c1cc(OC)c(OC)c(OC)c1)OCO3` [CBK200105], the viability at 28.5 h, 10 µM turned out to be 54.8%.

Take `CC1CCCN(Cc2ccccc2[N+](=O)[O-])C1` (stereo not shown) [CBK261862]: the viability at 28.5 h, 10 µM worked out at 102%.

Regarding `CCN1CCN(Cc2c(C)nc3ccc(C)cc3c2O)CC1` [CBK263699], the viability at 28.5 h, 10 µM stood at 89.8%.

Regarding `CN(C)CCOCc1ncccc1OCCOC1CCCCO1` (stereo not shown) [CBK045662], the viability at 28.5 h, 10 µM stood at 93.1%.

On to `O=C(Cc1ccc(F)cc1)N1CCC(c2cc3cnccc3[nH]2)CC1` [CBK283454], for which the viability at 28.5 h, 10 µM was determined as 85.7%.

Take `Cc1cc(-c2cc(=O)n(Cc3ccccc3C)nc2-c2ccco2)on1` [CBK282878]: the viability at 28.5 h, 10 µM stood at 96.7%.

Take `Cc1ccccc1N1CCN(Cc2cccc(C(=O)O)c2)CC1` [CBK286890]: the viability at 28.5 h, 10 µM turned out to be 90.8%.

As to `COC(=O)c1ccccc1NC(=O)CSc1nc(C)cc(C(F)(F)F)n1` [CBK268682], the viability at 28.5 h, 10 µM is 89.1%.

For `COc1ccc(-c2noc(CN(C)C(=O)c3cccs3)n2)cc1` [CBK270286], the viability at 28.5 h, 10 µM amounted to 89.6%.

`CC(C)c1ccc(C(C)NC(=O)c2cccn(CC(=O)NC3CCCC3)c2=O)cc1` (stereo not shown) [CBK286018]: the viability at 28.5 h, 10 µM amounted to 91.3%.

Consider `C=C1C2(C(=O)NCCn3nc(C)c(Cl)c3C)CCC(C2)C1(C)C` (stereo not shown) [CBK281661], for which the viability at 28.5 h, 10 µM came out at 81.5%.

`Cc1cc(C(=O)CSc2nnc(CN3CCCC3)o2)c(C)n1C1CC1` [CBK306199]: the viability at 28.5 h, 10 µM was 84%.

On to `S=c1nc[nH]cc1-c1ccc(Br)cc1` [CBK005833], for which the viability at 28.5 h, 10 µM is 87.6%.

`O=C(Cn1ncc2ccccc2c1=O)NNC(=S)NC1CC2CCC1C2` (stereo not shown) [CBK267892]: the viability at 28.5 h, 10 µM came to 106%.

With `C=CCN1C(=O)C2(CC(=O)N(Cc3ccc(OC)c(OC)c3)C2=O)c2ccccc21` (stereo not shown) [CBK075148], the viability at 28.5 h, 10 µM is 114%.

For `CSc1nsc(SCC(=O)Nc2cccc(NC(C)=O)c2)n1` [CBK269833], the viability at 28.5 h, 10 µM stood at 93.2%.

As for `C=CCN1C(=O)C2(CC(=O)N(Cc3ccccc3)C2=O)c2cc(OC)ccc21` (stereo not shown) [CBK075281], the viability at 28.5 h, 10 µM turned out to be 103%.

Turning to `COCCN(C(=S)Nc1ccc(C)cc1Cl)C(C)c1cccnc1` (stereo not shown) [CBK294472], the viability at 28.5 h, 10 µM was 91.1%.

Regarding `O=C(O)c1cccnc1SC1CC(=O)N(c2cccc(Cl)c2Cl)C1=O` (stereo not shown) [CBK269306], the viability at 28.5 h, 10 µM is 110%.

As for `CCn1c(SCC(=O)c2ccc(F)cc2)nnc1C(C)Oc1ccccc1` (stereo not shown) [CBK269695], the viability at 28.5 h, 10 µM is 108%.

Regarding `COCCNc1cc(-c2ccco2)ncn1` [CBK090796], the viability at 28.5 h, 10 µM worked out at 92.5%.

Turning to `OCC(O)CN1CCCC1` (stereo not shown) [CBK015457], the viability at 28.5 h, 10 µM was 114%.

`Cc1nc(-c2ccccc2)ccc1C(=O)Nc1nc(CC(N)=O)cs1` [CBK295195]: the viability at 28.5 h, 10 µM worked out at 96.8%.

Regarding `Cc1ncc(CN(C)C(=O)c2cccc(NC(=O)C3CCCCC3)c2)s1` [CBK306295], the viability at 28.5 h, 10 µM was found to be 83%.

On to `O=C(N/N=C\c1cccc2ccccc12)c1ccc(CO)nc1` [CBK261377], for which the viability at 28.5 h, 10 µM was determined as 104%.

Regarding `O=C(NC(c1ccccc1)c1ccccn1)c1ccco1` (stereo not shown) [CBK144109], the viability at 28.5 h, 10 µM was 106%.

Consider `Cc1cc(C(=O)N2CCC(c3nn(C)c4ncccc34)CC2)cs1` [CBK284987], for which the viability at 28.5 h, 10 µM worked out at 104%.

For the compound `O=C1CCC(=O)N1` [CBK073851], the viability at 28.5 h, 10 µM amounted to 88.7%.

For `COc1ccccc1Nc1nc(N)c2ccccc2n1` [CBK266665C], the viability at 28.5 h, 10 µM stood at 90.4%.

For `CC1=CCC2(CC1)COC(C(C)(C)CN(C)C)OC2` (stereo not shown) [CBK011369], the viability at 28.5 h, 10 µM is 91.7%.

As for `FC(F)(F)c1cccc(Sc2cccs2)n1` [CBK115242], the viability at 28.5 h, 10 µM came to 91.5%.

For the compound `CCC(C)(C)c1ccc(S(=O)(=O)N(CCC#N)Cc2cccnc2)cc1` [CBK043960], the viability at 28.5 h, 10 µM amounted to 89.6%.

As to `CCN(CC)S(=O)(=O)c1cccc(-n2sc3ccccc3c2=O)c1` [CBK116501], the viability at 28.5 h, 10 µM worked out at 96.2%.

With `CCO[C@H]1COC[C@@H]1NC(=O)c1cccc2c1NCCC2` [CBK307113], the viability at 28.5 h, 10 µM is 94.9%.

On to `CN(C)C(=O)C1(Cc2ccccc2-c2cccs2)CCN(C(=O)Cc2ccccc2)CC1` [CBK285687], for which the viability at 28.5 h, 10 µM worked out at 92.6%.

With `O=C1N[C@]2(CCc3ccccc31)CN(Cc1ccsc1)C[C@H]2CO` [CBK284793], the viability at 28.5 h, 10 µM amounted to 90.7%.

Take `COc1cccc(C(=O)Nc2ccc(-c3noc(-c4ccccn4)n3)cc2)c1` [CBK270055]: the viability at 28.5 h, 10 µM is 110%.

Consider `CC(C)Nc1nccnc1-c1cccnc1` [CBK037054], for which the viability at 28.5 h, 10 µM came out at 98.9%.

As for `Cc1ccccc1NS(=O)(=O)c1cc(OCC(N)=O)c(C)cc1Cl` [CBK266443], the viability at 28.5 h, 10 µM amounted to 85.9%.

Regarding `CC(=O)Nc1cccc(-c2cnc(N)c(N3CCN(C)CC3)n2)c1` [CBK063361], the viability at 28.5 h, 10 µM worked out at 107%.

`OC(CN1CCC(O)(c2ccc(F)cc2)CC1)c1ccc(F)cc1` (stereo not shown) [CBK282510]: the viability at 28.5 h, 10 µM worked out at 79%.

`COC(=O)CCC(=O)N1CCCC2(CCN(C(=O)c3ccoc3)C2)C1` (stereo not shown) [CBK160988]: the viability at 28.5 h, 10 µM was 100%.

With `COc1cccc2ncn(CCNS(C)(=O)=O)c(=O)c12` [CBK306583], the viability at 28.5 h, 10 µM was 81%.

For the compound `O=C(O)C1=NN(c2ccccc2)C(=O)CC1` [CBK270176], the viability at 28.5 h, 10 µM is 84.4%.

On to `CC(=O)NCCc1ccc(S(=O)(=O)N2CCN(Cc3ccccc3)CC2)cc1` [CBK268458], for which the viability at 28.5 h, 10 µM was 94.8%.

Turning to `Cc1cc(C2CCCCCN2C(=O)c2cccc(F)c2)on1` (stereo not shown) [CBK285448], the viability at 28.5 h, 10 µM was 96.8%.

For the compound `O=C(c1ccno1)N1C[C@@H]2OCC(=O)N(CC3CC3)[C@@H]2C1` [CBK289680], the viability at 28.5 h, 10 µM worked out at 83.5%.

Turning to `COc1ccc(-c2cc(-c3nnc(S)n3-c3ccccc3Cl)[nH]n2)cc1` [CBK265880], the viability at 28.5 h, 10 µM was 100%.

`CCOC(=O)Cn1[nH]c(CO)c(Cc2c(Cl)cccc2Cl)c1=O` [CBK103580]: the viability at 28.5 h, 10 µM was 92.2%.

For the compound `O=C(O)c1nsnc1C(=O)O` [CBK278311K], the viability at 28.5 h, 10 µM worked out at 114%.

As to `CC(=O)c1cc(CCCO)n(Cc2ccco2)c1C` [CBK022013], the viability at 28.5 h, 10 µM is 115%.

`COc1ccc(CC(=O)N2CC[C@H]3NC(=O)N(c4ccccc4)C(=O)[C@H]32)cc1` [CBK289278]: the viability at 28.5 h, 10 µM stood at 92.7%.

Consider `CN1CCN(c2ccc(-c3cc(Nc4cccc(OCc5ccccc5)c4)ncn3)cn2)CC1` [CBK090918], for which the viability at 28.5 h, 10 µM came to 113%.

As to `O=C(Nc1ccc(I)cc1C(=O)N1CCCCC1CCO)c1cccc2ccccc12` (stereo not shown) [CBK266212], the viability at 28.5 h, 10 µM worked out at 113%.

In the case of `CC(C)C(C(=O)Nc1ccc(S(=O)(=O)Nc2nccs2)cc1)N1C(=O)c2ccccc2C1=O` (stereo not shown) [CBK265707], the viability at 28.5 h, 10 µM is 107%.
